Assays:
[1] = target: T1, Alpha-2B adrenergic receptor (Homo sapiens, UniProt P18089)
T1 sequence (P18089 whole entry): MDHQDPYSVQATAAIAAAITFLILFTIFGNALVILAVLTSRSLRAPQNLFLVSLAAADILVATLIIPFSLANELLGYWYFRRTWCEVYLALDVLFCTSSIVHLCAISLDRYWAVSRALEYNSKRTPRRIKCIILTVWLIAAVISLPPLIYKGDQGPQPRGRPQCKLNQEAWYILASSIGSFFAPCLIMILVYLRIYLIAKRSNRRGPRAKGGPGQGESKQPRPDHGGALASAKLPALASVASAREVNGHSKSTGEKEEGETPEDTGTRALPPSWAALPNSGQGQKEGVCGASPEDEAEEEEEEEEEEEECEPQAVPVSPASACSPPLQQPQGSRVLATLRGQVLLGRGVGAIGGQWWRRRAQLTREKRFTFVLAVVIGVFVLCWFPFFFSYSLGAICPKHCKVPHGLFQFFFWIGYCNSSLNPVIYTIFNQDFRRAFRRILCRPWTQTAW

[2] = target: Neuronal acetylcholine receptor subunit alpha-4 (Homo sapiens, UniProt P43681)
Sequence of Neuronal acetylcholine receptor subunit alpha-4 (P43681 whole entry): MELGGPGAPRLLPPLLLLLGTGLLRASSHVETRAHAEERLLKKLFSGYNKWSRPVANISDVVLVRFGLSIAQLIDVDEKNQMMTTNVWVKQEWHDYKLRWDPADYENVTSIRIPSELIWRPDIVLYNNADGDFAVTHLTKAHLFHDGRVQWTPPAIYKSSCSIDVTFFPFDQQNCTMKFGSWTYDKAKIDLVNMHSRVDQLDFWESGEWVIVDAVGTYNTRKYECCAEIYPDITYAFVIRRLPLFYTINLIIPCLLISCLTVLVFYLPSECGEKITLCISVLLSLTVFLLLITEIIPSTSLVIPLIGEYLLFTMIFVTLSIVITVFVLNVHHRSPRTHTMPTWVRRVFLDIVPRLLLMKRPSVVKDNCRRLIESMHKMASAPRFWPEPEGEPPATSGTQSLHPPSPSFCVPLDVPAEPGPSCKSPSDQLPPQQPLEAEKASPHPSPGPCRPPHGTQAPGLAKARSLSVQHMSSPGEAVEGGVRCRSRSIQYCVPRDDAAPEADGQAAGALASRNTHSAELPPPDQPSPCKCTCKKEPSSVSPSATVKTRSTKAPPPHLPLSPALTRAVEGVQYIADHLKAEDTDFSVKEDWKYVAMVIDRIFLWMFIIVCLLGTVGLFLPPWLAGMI

Cannabinoid receptor 1 = Cannabinoid receptor 1 (Homo sapiens, UniProt P21554); format: functional, cell-based
Sequence of Cannabinoid receptor 1 (P21554 whole entry): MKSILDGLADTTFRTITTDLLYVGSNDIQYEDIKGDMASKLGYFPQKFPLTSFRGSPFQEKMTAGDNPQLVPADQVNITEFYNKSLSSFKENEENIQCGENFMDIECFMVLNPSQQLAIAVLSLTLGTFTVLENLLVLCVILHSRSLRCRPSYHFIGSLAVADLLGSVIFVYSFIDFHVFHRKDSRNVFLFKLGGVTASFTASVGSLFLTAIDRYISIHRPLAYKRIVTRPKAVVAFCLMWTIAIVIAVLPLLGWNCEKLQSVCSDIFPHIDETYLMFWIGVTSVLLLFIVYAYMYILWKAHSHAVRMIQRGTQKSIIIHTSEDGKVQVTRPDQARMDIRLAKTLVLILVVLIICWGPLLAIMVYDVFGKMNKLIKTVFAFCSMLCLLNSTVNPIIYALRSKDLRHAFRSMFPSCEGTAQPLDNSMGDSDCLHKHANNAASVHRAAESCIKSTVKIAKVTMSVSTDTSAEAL

Estrogen receptor = target: T2, Estrogen receptor (Homo sapiens, UniProt P03372)
T2 sequence (P03372 whole entry): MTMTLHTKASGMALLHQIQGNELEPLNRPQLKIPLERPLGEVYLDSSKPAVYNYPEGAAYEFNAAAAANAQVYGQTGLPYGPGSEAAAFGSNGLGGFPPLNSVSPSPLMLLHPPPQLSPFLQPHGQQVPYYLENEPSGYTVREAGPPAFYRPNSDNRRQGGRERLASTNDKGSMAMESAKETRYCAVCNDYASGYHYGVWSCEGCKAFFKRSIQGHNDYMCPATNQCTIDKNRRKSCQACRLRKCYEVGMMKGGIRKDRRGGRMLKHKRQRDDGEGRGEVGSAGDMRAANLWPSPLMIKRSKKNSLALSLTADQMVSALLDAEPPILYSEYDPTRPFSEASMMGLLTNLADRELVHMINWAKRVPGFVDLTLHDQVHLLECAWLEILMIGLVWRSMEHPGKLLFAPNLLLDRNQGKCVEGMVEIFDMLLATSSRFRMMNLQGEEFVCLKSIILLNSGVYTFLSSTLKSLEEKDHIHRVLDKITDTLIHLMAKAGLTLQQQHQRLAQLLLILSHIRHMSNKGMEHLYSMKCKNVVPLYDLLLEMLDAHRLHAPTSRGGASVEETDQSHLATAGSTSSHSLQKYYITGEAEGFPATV

Histamine H1 receptor = Histamine H1 receptor (Homo sapiens, UniProt P35367)
Sequence of Histamine H1 receptor (P35367 whole entry): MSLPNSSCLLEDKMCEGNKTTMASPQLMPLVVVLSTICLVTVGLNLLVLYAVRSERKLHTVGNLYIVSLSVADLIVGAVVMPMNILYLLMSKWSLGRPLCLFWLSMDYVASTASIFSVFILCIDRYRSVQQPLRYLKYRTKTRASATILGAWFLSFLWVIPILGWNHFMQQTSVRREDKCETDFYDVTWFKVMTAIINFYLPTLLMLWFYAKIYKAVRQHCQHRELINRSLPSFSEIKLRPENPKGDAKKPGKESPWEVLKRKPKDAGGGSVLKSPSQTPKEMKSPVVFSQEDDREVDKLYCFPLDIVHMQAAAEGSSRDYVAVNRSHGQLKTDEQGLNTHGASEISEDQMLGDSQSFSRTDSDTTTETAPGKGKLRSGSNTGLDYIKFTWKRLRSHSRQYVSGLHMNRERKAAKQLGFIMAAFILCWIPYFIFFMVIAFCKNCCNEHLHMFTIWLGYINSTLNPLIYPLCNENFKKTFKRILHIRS

[3] = target: 5-hydroxytryptamine receptor 2B (Homo sapiens, UniProt P41595); format: functional, cell-based
Sequence of 5-hydroxytryptamine receptor 2B (P41595 whole entry): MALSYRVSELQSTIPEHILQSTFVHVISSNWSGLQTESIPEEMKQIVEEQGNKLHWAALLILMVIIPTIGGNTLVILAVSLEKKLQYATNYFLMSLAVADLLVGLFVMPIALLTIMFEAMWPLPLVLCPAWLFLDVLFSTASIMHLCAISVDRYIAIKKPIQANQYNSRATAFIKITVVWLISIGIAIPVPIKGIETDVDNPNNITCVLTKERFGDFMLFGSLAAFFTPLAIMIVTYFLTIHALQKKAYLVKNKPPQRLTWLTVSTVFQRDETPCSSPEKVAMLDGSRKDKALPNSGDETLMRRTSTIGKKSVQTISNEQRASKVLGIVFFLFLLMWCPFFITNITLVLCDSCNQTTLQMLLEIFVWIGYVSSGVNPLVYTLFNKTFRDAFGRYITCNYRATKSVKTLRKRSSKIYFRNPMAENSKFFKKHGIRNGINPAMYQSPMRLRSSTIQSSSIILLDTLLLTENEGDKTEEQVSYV

[4] = target: T3, 5-hydroxytryptamine receptor 2C (Homo sapiens, UniProt P28335)
T3 sequence (P28335 whole entry): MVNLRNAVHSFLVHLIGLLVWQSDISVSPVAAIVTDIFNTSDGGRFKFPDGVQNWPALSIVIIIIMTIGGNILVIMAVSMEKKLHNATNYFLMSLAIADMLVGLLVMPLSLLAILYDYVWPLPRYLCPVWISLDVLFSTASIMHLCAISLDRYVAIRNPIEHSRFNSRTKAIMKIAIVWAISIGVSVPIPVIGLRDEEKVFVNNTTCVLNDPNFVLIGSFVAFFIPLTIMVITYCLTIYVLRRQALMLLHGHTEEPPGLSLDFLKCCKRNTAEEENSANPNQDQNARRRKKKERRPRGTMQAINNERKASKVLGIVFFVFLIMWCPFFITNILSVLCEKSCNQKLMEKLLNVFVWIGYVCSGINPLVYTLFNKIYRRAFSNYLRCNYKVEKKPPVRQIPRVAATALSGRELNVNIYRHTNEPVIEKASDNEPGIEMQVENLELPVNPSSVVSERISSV

Melanocortin receptor 3 = Melanocortin receptor 3 (Homo sapiens, UniProt P41968)
Sequence of Melanocortin receptor 3 (P41968 whole entry): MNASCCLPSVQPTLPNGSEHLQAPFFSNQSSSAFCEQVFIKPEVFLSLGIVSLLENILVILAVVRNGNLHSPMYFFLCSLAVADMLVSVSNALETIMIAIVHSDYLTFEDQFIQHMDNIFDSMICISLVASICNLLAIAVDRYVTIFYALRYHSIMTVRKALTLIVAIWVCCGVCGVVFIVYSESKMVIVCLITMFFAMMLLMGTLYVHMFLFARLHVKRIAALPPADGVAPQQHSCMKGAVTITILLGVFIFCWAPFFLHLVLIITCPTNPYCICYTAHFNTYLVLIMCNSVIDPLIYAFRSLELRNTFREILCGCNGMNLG

Motilin receptor = Motilin receptor (Homo sapiens, UniProt O43193)
Sequence of Motilin receptor (O43193 whole entry): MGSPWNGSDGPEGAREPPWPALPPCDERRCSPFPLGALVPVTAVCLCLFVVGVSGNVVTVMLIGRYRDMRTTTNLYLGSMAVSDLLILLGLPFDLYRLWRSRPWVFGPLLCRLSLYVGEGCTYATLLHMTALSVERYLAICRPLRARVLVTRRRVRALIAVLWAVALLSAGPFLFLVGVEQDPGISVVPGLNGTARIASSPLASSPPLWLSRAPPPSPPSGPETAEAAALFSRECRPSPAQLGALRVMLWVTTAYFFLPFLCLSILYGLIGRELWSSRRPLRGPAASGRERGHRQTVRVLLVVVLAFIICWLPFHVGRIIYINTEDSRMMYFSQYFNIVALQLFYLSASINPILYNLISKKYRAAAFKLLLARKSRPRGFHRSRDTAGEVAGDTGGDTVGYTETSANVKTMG

[5] = target: Kappa-type opioid receptor (Homo sapiens, UniProt P41145)
Sequence of Kappa-type opioid receptor (P41145 whole entry): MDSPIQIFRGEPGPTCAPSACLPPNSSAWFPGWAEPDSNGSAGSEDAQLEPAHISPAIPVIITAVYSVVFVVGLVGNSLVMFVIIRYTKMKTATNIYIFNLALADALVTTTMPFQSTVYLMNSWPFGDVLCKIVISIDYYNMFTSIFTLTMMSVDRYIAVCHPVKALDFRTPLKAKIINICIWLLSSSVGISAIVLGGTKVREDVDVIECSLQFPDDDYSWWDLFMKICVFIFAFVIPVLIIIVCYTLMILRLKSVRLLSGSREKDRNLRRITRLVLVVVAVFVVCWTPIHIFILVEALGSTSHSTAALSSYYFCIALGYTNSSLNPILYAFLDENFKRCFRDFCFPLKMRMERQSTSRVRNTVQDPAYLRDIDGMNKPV

Progesterone receptor = target: T4, Progesterone receptor (Homo sapiens, UniProt P06401); format: functional
T4 sequence (P06401 whole entry): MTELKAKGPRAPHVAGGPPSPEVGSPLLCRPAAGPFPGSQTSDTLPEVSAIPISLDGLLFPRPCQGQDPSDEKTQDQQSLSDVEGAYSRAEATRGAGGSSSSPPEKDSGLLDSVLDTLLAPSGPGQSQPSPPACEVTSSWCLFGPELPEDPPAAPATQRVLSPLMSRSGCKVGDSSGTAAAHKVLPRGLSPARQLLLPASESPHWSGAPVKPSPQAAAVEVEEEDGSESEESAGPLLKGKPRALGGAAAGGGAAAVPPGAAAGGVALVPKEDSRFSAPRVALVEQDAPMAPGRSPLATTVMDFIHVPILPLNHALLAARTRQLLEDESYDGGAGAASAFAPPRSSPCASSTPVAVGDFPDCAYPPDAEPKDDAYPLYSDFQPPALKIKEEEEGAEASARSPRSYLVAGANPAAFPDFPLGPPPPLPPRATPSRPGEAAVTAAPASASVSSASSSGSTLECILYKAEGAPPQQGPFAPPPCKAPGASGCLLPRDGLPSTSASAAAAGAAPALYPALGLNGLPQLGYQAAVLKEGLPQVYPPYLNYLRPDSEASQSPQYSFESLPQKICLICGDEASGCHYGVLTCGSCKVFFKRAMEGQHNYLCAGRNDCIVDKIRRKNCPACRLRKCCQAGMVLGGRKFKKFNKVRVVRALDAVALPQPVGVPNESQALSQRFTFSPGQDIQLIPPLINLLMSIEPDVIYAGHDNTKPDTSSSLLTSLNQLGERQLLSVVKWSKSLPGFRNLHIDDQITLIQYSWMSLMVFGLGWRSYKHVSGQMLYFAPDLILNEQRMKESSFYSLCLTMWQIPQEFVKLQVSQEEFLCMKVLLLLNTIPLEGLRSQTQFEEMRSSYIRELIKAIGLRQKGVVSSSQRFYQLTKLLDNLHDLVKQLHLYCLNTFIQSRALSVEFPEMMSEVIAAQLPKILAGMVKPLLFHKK
Further: assay procedure not described here.

SMILES: CCN(CC)C(=O)C1CN2CCc3cc(OC)c(OC)cc3C2CC1OC(C)=O (stereo not drawn) [BENZQUINAMIDE]
- AC50 [1]: 1.03 µM
- AC50 [2]: > 30 µM
- AC50 (Cannabinoid receptor 1): > 30 µM
- AC50 (Estrogen receptor): > 30 µM
- AC50 (Histamine H1 receptor): > 30 µM
- AC50 [3]: 0.32 µM
- AC50 [4]: 17 µM
- AC50 (Melanocortin receptor 3): > 30 µM
- AC50 (Motilin receptor): > 30 µM
- AC50 [5]: > 30 µM
- AC50 (Progesterone receptor): > 30 µM

SMILES: CCCCC1(CC)C(=O)NC(=O)NC1=O [BUTETHAL]
- AC50 [1]: > 30 µM
- AC50 [2]: > 30 µM
- AC50 (Cannabinoid receptor 1): > 30 µM
- AC50 (Estrogen receptor): > 30 µM
- AC50 (Histamine H1 receptor): > 30 µM
- AC50 [3]: > 30 µM
- AC50 [4]: > 30 µM
- AC50 (Melanocortin receptor 3): > 30 µM
- AC50 (Motilin receptor): > 30 µM
- AC50 [5]: > 30 µM
- AC50 (Progesterone receptor): > 30 µM

SMILES: CCOC(=O)NNc1ccc(N(CC)CC(C)O)nn1 (stereo not drawn) [CADRALAZINE]
- AC50 [1]: > 30 µM
- AC50 [2]: > 30 µM
- AC50 (Cannabinoid receptor 1): > 30 µM
- AC50 (Estrogen receptor): > 30 µM
- AC50 (Histamine H1 receptor): > 30 µM
- AC50 [3]: > 30 µM
- AC50 [4]: > 30 µM
- AC50 (Melanocortin receptor 3): > 30 µM
- AC50 (Motilin receptor): > 30 µM
- AC50 [5]: > 30 µM
- AC50 (Progesterone receptor): > 30 µM

SMILES: CO[C@@]1(NC(=O)Cc2cccs2)C(=O)N2C(C(=O)O)=C(COC(N)=O)CS[C@@H]21 [CEFOXITIN]
- AC50 [1]: > 30 µM
- AC50 [2]: > 30 µM
- AC50 (Cannabinoid receptor 1): > 30 µM
- AC50 (Estrogen receptor): > 30 µM
- AC50 (Histamine H1 receptor): > 30 µM
- AC50 [3]: > 30 µM
- AC50 [4]: > 30 µM
- AC50 (Melanocortin receptor 3): > 30 µM
- AC50 (Motilin receptor): > 30 µM
- AC50 [5]: > 30 µM
- AC50 (Progesterone receptor): > 30 µM

SMILES: CCN(CC)CCOC(=O)c1ccc(N)cc1Cl [CHLOROPROCAINE]
- AC50 [1]: > 30 µM
- AC50 [2]: 25 µM
- AC50 (Cannabinoid receptor 1): > 30 µM
- AC50 (Estrogen receptor): > 30 µM
- AC50 (Histamine H1 receptor): > 30 µM
- AC50 [3]: > 30 µM
- AC50 [4]: 17 µM
- AC50 (Melanocortin receptor 3): > 30 µM
- AC50 (Motilin receptor): > 30 µM
- AC50 [5]: > 30 µM
- AC50 (Progesterone receptor): > 30 µM

SMILES: CCC(C)(Oc1ccc(C2(c3ccc(OC(C)(CC)C(=O)O)cc3)CCCCC2)cc1)C(=O)O (stereo not drawn) [CLINOFIBRATE]
- AC50 [1]: > 30 µM
- AC50 [2]: > 30 µM
- AC50 (Cannabinoid receptor 1): > 30 µM
- AC50 (Estrogen receptor): > 30 µM
- AC50 (Histamine H1 receptor): > 30 µM
- AC50 [3]: > 30 µM
- AC50 [4]: > 30 µM
- AC50 (Melanocortin receptor 3): > 30 µM
- AC50 (Motilin receptor): > 30 µM
- AC50 [5]: > 30 µM
- AC50 (Progesterone receptor): > 30 µM

SMILES: CCCCC[C@H](O)/C=C/[C@H]1[C@H](O)CC(=O)[C@@H]1C/C=C\CCCC(=O)O [DINOPROSTONE]
- AC50 [1]: > 30 µM
- AC50 [2]: > 30 µM
- AC50 (Cannabinoid receptor 1): > 30 µM
- AC50 (Estrogen receptor): 23 µM
- AC50 (Histamine H1 receptor): > 30 µM
- AC50 [3]: > 30 µM
- AC50 [4]: > 30 µM
- AC50 (Melanocortin receptor 3): > 30 µM
- AC50 (Motilin receptor): > 30 µM
- AC50 [5]: 22 µM
- AC50 (Progesterone receptor): 4.5 µM

SMILES: CC(C)c1cc2c(cc1S(=O)(=O)O)[C@@]1(C)CCC[C@@](C)(C(=O)O)[C@@H]1CC2 [ECABET]
- AC50 [1]: > 30 µM
- AC50 [2]: > 30 µM
- AC50 (Cannabinoid receptor 1): > 30 µM
- AC50 (Estrogen receptor): > 30 µM
- AC50 (Histamine H1 receptor): > 30 µM
- AC50 [3]: > 30 µM
- AC50 [4]: > 30 µM
- AC50 (Melanocortin receptor 3): > 30 µM
- AC50 (Motilin receptor): > 30 µM
- AC50 [5]: 19 µM
- AC50 (Progesterone receptor): > 30 µM
